Tested on: diabetic, insulin dependent canine test subject
Assay: GABA in drinking water given to diabetic, insulin dependent canine subjects; monitoring of fasting blood glucose and fructosamine
Assay type: in vivo
Conditions: for decline of fasting blood glucose: 30 mg/kg daily in 200 milliliters of water, oral, after two months of treatment, subject as its own control
Protocol: METHODS: GABA (99% pure from Sigma-Aldrich) at a dose of 30 mg/kg was brought into solution in 200 milliliters of water daily so that the diabetic, insulin dependent canine test subject consumed the dose within approximately four hours, based on average consumption of water observed by owners. Fasting blood glucose and fructosamine were monitored once a month. Each canine subject served as its own control, with monitoring of blood glucose and fructosamine off treatment recorded the first two months followed by monitoring while on GABA therapy.

## NCCCC(=O)O [GABA, gamma-aminobutyric acid]
Both subjects, 30 mg/kg daily in water, on treatment versus off treatment
  concentrations of blood fructosamine: significantly lower
First test subject
  decline of fasting blood glucose: 49.6%
Insulin dependent test subjects, 30 mg/kg daily in water, within two weeks, continued improvement over four months
  glycemic control: improved glycemic control within two weeks
Second test subject
  decline of fasting blood glucose: 50%
